Reference: patent US9212147B2, “Dihydroxy aromatic heterocyclic compound” (TAKEDA PHARMACEUTICAL COMPANY LIMITED, priority 2011, dated 2015)

How the values were obtained:
[1] = target: recombinant human DAAO protein (Homo sapiens (Human), UniProt P14920); assay: DAAO inhibitory activity test (H2O2 production, Amplex red/HRP fluorescence); format: biochemical; settings: recombinant human DAAO 15 nM, D-alanine substrate, FAD, pH 7.5
Protocol: The DAAO inhibitory activity was measured by assaying the amount of hydrogen peroxide (H2O2) produced by reacting DAAO protein with flavin adenine dinucleotide (FAD) and D-alanine. The amount of H2O2 was determined by measuring the fluorescence generated on conversion of Amplex red (manufactured by Invitrogen Co.) into resorufin by the reaction of H2O2 with horseradish peroxidase (HRP).
Escherichia coli strain BL21(DE3) (manufactured by Novagen) was transformed with the constructed human DAAO expression vector, inoculated into LB culture medium containing kanamycin at a final concentration of 20 μg/mL, and shake-cultured at 37° C. overnight. The multiplied transformant was inoculated into Terrific Broth containing kanamycin at a final concentration of 20 μg/mL, and shake-cultured at 37° C. until it reached OD600=3.0. Thereafter, the culture was cooled to 30° C., and expression was induced with 1 mM IPTG. After 20 hours, bacterial pellets were recovered by centrifugation.
The bacterial pellets recovered as above were suspended in a lysis buffer (17 mM sodium pyrophosphate buffer pH 8.3, 100 μM FAD, 1 mM sodium benzoate, 1 mM PMSF, 14 mM β-mercaptoethanol, 0.2 mg/mL lysozyme) and the bacteria were fractured by sonication. The sonicated liquid was centrifuged and the supernatant was recovered. To remove the nucleic acid, to this supernatant were sequentially added NaCl (final concentration 0.5M) and 0.05% ethyleneimine (polymer) and, after thorough mixing, the supernatant was recovered by centrifugation. The supernatant was heat treated at 55° C. for 15 min, and the supernatant was recovered by centrifugation. To this supernatant was added 40% saturated ammonium sulfate and, after thorough mixing, the salt precipitate was recovered by centrifugation. The obtained salt precipitate was redissolved in buffer A (50 mM potassium phosphate buffer pH 7.4, 10% glycerol, 200 μM sodium benzoate, 10 μM FAD, 20% saturated ammonium sulfate), and filtered through a 0.22 μm filter (manufactured by Millipore). The obtained filtrate was applied to a hydrophobic interaction column Butyl-S Sepharose 6 Fast Flow (manufactured by GE Healthcare Life Sciences) and eluted with buffer B (10 mM Tris buffer solution pH 8.0, 200 μM sodium benzoate, 10% glycerol, 10 μM FAD). The eluent was applied to an anion-exchange column, Q Sepharose Fast Flow (manufactured by GE Healthcare Life Sciences) and eluted using an NaCl concentration gradient. The eluate was replaced with buffer B (sic) using Amicon Ultra-15 10 kDa (manufactured by Millipore), and thereafter applied to an anion-exchange column, RESOURCE Q 6 mL (manufactured by GE Healthcare Life Sciences), and eluted with an NaCl concentration gradient. The eluate was concentrated using Amicon Ultra-15 10 kDa, thereafter applied to a HiLoad 26/600 Superdex 200 pg (manufactured by GE Healthcare Life Sciences) gel filtration column equilibrated with buffer C (10 mM potassium phosphate buffer pH 7.4, 0.5M NaCl, 400 μM sodium benzoate, 20 μM FAD), and the DAAO protein dimer fraction was recovered. The recovered DAAO protein was replaced (sic) with buffer D (10 mM trisodium citrate, 20 μM FAD, 400 μM sodium benzoate) using Amicon Ultra-15 10 kDa, concentrated to 10 mg/mL and cryopreserved at −80° C.

[2] = target: HEK293 cells that stably express human DAAO (Homo sapiens (Human), UniProt P14920); assay: Inhibitory activity test at cellular level using DAAO-expressing cells; format: cell-based; settings: D-alanine substrate
Protocol: HEK293 cells that stably express human DAAO were suspended in Cellbanker solution at 5×10^6 cells/ml and cryopreserved at −80° C. At the time of measurement, the cells were centrifuged at 1000 rpm for one min and the Cellbanker solution was removed. […] A 4% DMSO buffer solution (50 mM sodium phosphate [pH 7.5], 0.02% CHAPS) of the test compound (4 μL) was added to a 384-well black, low volume plate, the cell suspension (4 μL) was added, and the mixture was incubated at room temperature for 15 min.
Reverse transcription was performed on human normal kidney tissue-derived RNA (Clontech Corp.) using reverse transcriptase (SuperScriptIII, Life Technologies Corporation) and oligo (dT) primer (Life Technologies Corporation) according to the protocol of the kit (Life Technologies Corporation) and cDNA was synthesized. Then, using human DAAO_HindIII_F represented by Sequence No. 1 and human DAAO_BamHI_R represented by Sequence No. 2, a PCR reaction (35 cycles of 98° C. for 15 sec, 55° C. for 15 sec and 68° C. for 1 min 30 sec) was performed using DNA polymerase (PrimeSTAR, TAKARA BIO INC.) and cDNA obtained as above as a template. […] The PCR product was cloned in a cloning vector (pCR2.1-TOPO Cloning Kit, Life Technologies Corporation). The sequence of the insert was determined by the dideoxy sequence method (BigDye Terminator v3.1 Cycle Sequencing Kit; Life Technologies Corporation).
To express the ORF full length of DAAO as a protein, the above-mentioned vector was subjected to an enzyme reaction with restriction enzymes HindIII and BamHI at 37° C. for 3 hr, and the restriction enzyme-treated DNA fragment was purified. The DNA fragment containing the ORF was cloned to HindIII and BamHI sites present in the multiple cloning site of the expression vector (pcDNA3.1(+): Invitrogen Co.), whereby an expression plasmid (hDAAO/pcDNA3.1) was constructed.
Then, HEK293 cells were transfected to obtain the forced expression cell line. The cells were spread on a collagen-coated 24-well plate (Corning) to contain 1.0×10^5 cells per well on the day before transfection and, using Lipofectamine 2000 (Invitrogen) and hDAAO/pcDNA3.1, transfected according to the protocol. Thereafter, subculture was performed several times using 800 μg/mL geneticin, whereby a drug resistant cell line was obtained.
To confirm acquisition of the human DAAO expression cell line, the cells were spread on a collagen-coated 384-well black, clear bottom plate to 2.5×10^4 per well, and the cells were cultured at 37° C. in the presence of 5% CO2 for 24 hr. After culturing, the culture supernatant was removed, and a solution containing flavin adenine dinucleotide was added to Hanks-20 mM Hepes (pH 7.4) buffer to 5.5 μg/mL, added by 20 μL per well to the wells from which the supernatant had been removed, and the mixture was allowed to react at 37° C. in the presence of 5% CO2 for 1 hr.

O=c1[nH]nc(CCc2ccc(-c3ccccc3)cc2)cc1O [Example 15]
IC50 [1]: 1.2 nM | IC50 [2]: 16 nM

O=c1cc(COc2ccc(F)cc2)[nH]nc1O [Example 231]
IC50 [1]: 2.9 nM | IC50 [2]: 13 nM

Cc1ccccc1CCc1cc(O)c(=O)[nH]n1 [Example 22]
IC50 [1]: 3.3 nM | IC50 [2]: 8.4 nM

O=c1[nH]nc(CCc2ccc(OC(F)(F)F)cc2)cc1O [Example 28]
IC50 [1]: 8.1 nM | IC50 [2]: 18 nM

COCCCc1cc(O)c(=O)[nH]n1 [Example 26]
IC50 [1]: 8.1 nM

Cc1cc(C)cc(CCc2cc(O)c(=O)[nH]n2)c1 [Example 40]
IC50 [1]: 4.7 nM | IC50 [2]: 9.8 nM

O=c1[nH]cc(CCC2CCCCC2)cc1O [Example 58]
IC50 [1]: 44 nM

O=c1[nH]nc(CCc2cccc3ccccc23)cc1O [Example 56]
IC50 [1]: 2.3 nM | IC50 [2]: 8.8 nM

O=c1[nH]nc(CCCCc2ccccc2)cc1O [Example 52]
IC50 [1]: 2.5 nM | IC50 [2]: 11 nM

O=c1[nH]nc(CCc2ccc(F)cc2F)cc1O [Example 21]
IC50 [1]: 2.2 nM | IC50 [2]: 5.5 nM

O=c1cc(COc2cccc(F)c2)[nH]nc1O [Example 232]
IC50 [1]: 2.3 nM | IC50 [2]: 13 nM

CC(C)(C)c1ccc(CCc2cc(O)c(=O)[nH]n2)cc1 [Example 25]
IC50 [1]: 6.6 nM | IC50 [2]: 18 nM

Cc1cccc(CCc2cc(O)c(=O)[nH]n2)c1 [Example 20]
IC50 [1]: 2.5 nM | IC50 [2]: 4.6 nM

COc1ccc(SCc2cc(=O)c(O)n[nH]2)cc1 [Example 47]
IC50 [1]: 5.2 nM | IC50 [2]: 12 nM

CCCCc1cc(O)c(=O)[nH]n1 [Example 29]
IC50 [1]: 6.9 nM | IC50 [2]: 13 nM

Cc1ccc(CCc2cc(O)c(=O)[nH]n2)cc1 [Example 13]
IC50 [1]: 6.1 nM | IC50 [2]: 14 nM
